From ChEMBL document CHEMBL5154721, “Discovery of HDAC6-Selective Inhibitor NN-390 with in Vitro Efficacy in Group 3 Medulloblastoma” (J Med Chem, 2022) come the findings set out here.

As a reminder, the pIC50 is the IC50 on a negative log10 scale, so that one unit is a factor of ten. What is called IC50 is the midpoint of a concentration-inhibition curve. What is called half-life is the time in which the quantity being followed falls by half.

SMILES strings stand for the structures. pIC50: −log10 of the molar value. Activity calls are given as the source filed them. No cut-off for these calls is given here.

Data set [1] concerns MV4-11. In words: Induction of apoptosis in human MV4-11 cells assessed as late apoptotic cells at 0.25 uM after 24 hrs by Annexin V/PI staining based flow cytometric analysis (Rvb=8.13%). It counts as functional. (In flow cytometry, cells or beads pass a laser one at a time.)
Data set [2] addresses T1, Protein deacetylase HDAC6 (Homo sapiens) (UniProt Q9UBN7).
T1 sequence (whole entry): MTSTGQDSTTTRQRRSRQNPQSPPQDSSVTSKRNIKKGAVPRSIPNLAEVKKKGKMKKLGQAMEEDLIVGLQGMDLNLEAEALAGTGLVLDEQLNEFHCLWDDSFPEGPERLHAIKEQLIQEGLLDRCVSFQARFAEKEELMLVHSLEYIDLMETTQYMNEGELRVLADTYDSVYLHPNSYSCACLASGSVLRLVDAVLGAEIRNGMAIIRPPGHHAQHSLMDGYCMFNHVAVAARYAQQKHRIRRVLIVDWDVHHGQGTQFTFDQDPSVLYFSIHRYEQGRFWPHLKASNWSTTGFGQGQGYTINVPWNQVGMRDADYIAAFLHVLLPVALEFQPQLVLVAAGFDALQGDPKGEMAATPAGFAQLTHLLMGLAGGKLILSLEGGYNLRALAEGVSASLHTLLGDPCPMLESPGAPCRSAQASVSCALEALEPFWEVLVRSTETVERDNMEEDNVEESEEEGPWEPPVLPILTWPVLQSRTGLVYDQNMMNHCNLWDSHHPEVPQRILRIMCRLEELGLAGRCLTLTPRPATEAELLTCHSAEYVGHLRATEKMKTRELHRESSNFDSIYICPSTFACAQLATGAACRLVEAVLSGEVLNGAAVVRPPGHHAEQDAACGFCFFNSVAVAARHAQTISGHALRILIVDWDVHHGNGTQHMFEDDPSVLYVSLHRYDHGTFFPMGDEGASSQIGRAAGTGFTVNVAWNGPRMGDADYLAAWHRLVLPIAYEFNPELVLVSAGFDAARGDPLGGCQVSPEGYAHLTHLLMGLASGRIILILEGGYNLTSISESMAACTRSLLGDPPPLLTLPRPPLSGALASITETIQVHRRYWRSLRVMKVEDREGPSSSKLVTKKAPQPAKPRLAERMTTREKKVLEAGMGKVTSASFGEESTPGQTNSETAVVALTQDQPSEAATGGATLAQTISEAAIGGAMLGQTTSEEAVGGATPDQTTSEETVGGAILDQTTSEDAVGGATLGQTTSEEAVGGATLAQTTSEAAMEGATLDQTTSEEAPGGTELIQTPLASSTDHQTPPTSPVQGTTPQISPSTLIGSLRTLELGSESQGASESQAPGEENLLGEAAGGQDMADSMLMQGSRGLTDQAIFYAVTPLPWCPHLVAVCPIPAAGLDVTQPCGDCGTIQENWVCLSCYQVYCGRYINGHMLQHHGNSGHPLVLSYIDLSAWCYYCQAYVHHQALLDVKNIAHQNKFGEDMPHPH
As to the kind of experiment: Inhibition of full length human recombinant HDAC6 in human MV4-11 cells assessed as acetylation of histone H3 at 5 uM by Western blot analysis. The note with it: time 6.0 hrs. It counts as cell-based. On the technique in general: In western blotting, separated proteins are transferred to a membrane and probed.

In data set [3] the target is T1, Protein deacetylase HDAC6 (Homo sapiens). As to the kind of experiment: Potency index, ratio of test compound residence time to KT-531 residence time in full length HDAC6-NanoLuc fusion protein (unknown origin) expressed in HeLa cells by NanoBRET assay. It counts as cell-based. The note with it: time 5.0 min. Background: In BRET a luciferase serves as donor, and the signal depends on an acceptor being close.

In another data set the test system is MM1.S. As to the kind of experiment: Cytotoxicity against human MM1.S cells assessed as inhibition of cell growth incubated for 72 hrs measured by spectrophotometer analysis. It counts as functional, cell-based.
For the next data set, the target named is Histone deacetylase 2 (Homo sapiens, UniProt Q92769). As to the kind of experiment: Inhibition of full length human recombinant HDAC2 expressed in Sf9 baculovirus system using FAM-labeled acetylated peptide as substrate by measuring fluorescence intensity by EMSA method.
Chain of Histone deacetylase 2 (Q92769 whole entry): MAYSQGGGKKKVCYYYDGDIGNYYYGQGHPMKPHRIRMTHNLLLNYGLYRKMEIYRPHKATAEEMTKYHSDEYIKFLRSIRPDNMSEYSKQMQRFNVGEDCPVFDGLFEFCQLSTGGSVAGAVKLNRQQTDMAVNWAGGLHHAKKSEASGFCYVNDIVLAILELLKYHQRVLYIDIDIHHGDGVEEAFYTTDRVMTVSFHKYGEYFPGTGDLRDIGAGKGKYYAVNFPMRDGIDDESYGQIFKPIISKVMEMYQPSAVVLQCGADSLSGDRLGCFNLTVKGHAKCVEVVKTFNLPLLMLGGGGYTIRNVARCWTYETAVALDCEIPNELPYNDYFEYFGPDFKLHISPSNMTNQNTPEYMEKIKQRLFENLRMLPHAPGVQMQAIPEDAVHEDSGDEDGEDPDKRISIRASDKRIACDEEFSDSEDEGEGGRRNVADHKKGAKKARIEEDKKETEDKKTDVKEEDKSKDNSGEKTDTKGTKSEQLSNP
A further data set deals with Histone deacetylase 4 (Homo sapiens, UniProt P56524). As to the kind of experiment: Inhibition of full length human recombinant HDAC4 expressed in Sf9 baculovirus system using FAM-labeled acetylated peptide as substrate by measuring fluorescence intensity by EMSA method.
Chain of Histone deacetylase 4 (P56524 whole entry): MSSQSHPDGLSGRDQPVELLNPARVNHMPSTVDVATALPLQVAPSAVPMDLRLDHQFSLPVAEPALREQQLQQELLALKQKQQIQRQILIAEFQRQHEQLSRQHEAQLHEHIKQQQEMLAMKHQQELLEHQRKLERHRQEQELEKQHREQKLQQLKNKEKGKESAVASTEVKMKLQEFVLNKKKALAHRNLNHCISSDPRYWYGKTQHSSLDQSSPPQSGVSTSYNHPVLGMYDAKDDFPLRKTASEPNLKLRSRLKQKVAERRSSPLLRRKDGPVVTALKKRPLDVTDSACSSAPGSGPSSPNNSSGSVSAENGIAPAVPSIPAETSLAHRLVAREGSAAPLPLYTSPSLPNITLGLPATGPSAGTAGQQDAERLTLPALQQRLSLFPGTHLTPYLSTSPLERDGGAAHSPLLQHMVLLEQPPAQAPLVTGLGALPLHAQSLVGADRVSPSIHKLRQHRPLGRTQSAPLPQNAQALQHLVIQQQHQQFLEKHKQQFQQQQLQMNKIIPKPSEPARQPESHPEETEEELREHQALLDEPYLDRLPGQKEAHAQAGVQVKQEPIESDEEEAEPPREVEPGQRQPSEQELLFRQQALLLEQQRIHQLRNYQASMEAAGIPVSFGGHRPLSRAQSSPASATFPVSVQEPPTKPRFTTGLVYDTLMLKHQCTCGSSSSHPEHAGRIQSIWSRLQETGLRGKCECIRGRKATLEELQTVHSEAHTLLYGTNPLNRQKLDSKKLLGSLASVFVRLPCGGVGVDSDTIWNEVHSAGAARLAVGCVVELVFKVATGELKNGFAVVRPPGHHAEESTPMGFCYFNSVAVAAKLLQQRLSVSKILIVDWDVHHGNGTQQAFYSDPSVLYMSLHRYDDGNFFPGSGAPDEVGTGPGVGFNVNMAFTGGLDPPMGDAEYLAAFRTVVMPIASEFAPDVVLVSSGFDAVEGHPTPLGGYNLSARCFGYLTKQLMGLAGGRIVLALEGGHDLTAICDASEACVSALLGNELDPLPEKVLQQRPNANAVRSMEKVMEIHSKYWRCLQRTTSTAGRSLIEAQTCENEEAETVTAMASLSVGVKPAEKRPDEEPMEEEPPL
A short description of data set [4]: Cytotoxicity against human primary pooled fibroblasts cells assessed as inhibition of cell growth incubated for 72 hrs measured by spectrophotometer analysis. It counts as toxicity, cell-based, Fibroblast.
Data set [5] has as its target T1, Protein deacetylase HDAC6 (Homo sapiens). In words: Potency index, ratio of test compound residence time to ricolinostat residence time in full length HDAC6-NanoLuc fusion protein (unknown origin) expressed in HeLa cells by NanoBRET assay. It counts as cell-based.
The next data set has as its target Histone deacetylase 5 (Homo sapiens, UniProt Q9UQL6). In words: Inhibition of full length human recombinant HDAC5 expressed in Sf9 baculovirus system using FAM-labeled acetylated peptide as substrate by measuring fluorescence intensity by EMSA method.
The nature of data set [6]: Competitive inhibition of N-terminal His-SUMO tagged zebra fish recombinant HDAC6 catalytic domain 2 transfected with pET28b(+) vector in Escherichia coli BL21 (DE3) RILP cells incubated for 10 mins followed by addition of FITC-M344 measured af ter 10 mins by fluorescence polarization assay. The arrangement: species or system Danio rerio.
Data set [7] can be described thus: Stability in human plasma assessed as half life measured upto 60 mins by LC-MS/MS analysis. It counts as ADME, cell-free.
Data set [8] relates to MV4-11. In words: Induction of apoptosis in human MV4-11 cells assessed as early apoptotic cells at 2 uM after 24 hrs by Annexin V/PI staining based flow cytometric analysis (Rvb=2%). It counts as functional.

Chain of Histone deacetylase 5 (Q9UQL6 whole entry, the tested form may be a part): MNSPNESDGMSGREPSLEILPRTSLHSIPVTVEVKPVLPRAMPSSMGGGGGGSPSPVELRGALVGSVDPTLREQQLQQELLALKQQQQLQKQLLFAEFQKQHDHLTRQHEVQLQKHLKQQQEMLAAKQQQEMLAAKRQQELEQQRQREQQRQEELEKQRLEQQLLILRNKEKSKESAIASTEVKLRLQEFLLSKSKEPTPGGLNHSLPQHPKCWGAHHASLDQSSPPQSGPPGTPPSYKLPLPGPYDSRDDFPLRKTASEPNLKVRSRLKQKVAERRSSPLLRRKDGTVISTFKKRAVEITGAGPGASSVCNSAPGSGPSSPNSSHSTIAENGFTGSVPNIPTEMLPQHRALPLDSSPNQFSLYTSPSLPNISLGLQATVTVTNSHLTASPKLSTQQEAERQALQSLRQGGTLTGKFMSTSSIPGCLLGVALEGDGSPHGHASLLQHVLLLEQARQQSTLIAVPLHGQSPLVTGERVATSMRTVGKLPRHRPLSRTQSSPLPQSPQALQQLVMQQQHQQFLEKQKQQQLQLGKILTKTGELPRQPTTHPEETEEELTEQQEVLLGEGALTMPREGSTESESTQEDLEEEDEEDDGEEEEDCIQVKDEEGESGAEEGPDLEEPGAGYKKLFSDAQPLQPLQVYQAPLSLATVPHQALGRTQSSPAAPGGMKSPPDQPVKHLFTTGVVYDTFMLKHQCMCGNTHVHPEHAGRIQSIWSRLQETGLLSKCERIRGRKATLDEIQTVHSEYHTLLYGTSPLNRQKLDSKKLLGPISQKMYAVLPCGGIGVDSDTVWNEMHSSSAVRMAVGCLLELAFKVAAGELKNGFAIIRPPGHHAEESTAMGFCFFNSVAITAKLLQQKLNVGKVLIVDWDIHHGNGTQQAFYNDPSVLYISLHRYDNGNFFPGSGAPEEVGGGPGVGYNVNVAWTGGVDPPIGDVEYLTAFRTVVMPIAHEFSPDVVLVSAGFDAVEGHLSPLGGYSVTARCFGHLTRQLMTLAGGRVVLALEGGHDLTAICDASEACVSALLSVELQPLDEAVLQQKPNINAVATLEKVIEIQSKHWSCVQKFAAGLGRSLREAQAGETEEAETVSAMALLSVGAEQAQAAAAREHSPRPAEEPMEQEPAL

For `CC(C)N(Cc1ccc(C(=O)NO)cc1)S(=O)(=O)c1cc(F)c(F)c(F)c1F`, the Activity is recorded as 9% in the data set with MV4-11 [1] and 3.59% with MV4-11 [8]. Besides, the inhibition result in data set [2] is “Active”. Besides, the fold change (FC) is 1.9 in data set [3] and 2 in [5]. The pIC50 with MM1.S is 5.86; on Histone deacetylase 2 it was 6.50; on Histone deacetylase 4, less than 5.40; at Histone deacetylase 5, less than 5.52; in [6], 6.86. Besides, the IC50 at 72 h in data set [4] came out at 8.8 µM. Besides, in data set [7], the half-life amounted to 1.92 h.
